Measurements from PubChem BioAssay AID1963983 (Molecular Pharmacology Branch, DTP, NCI, 2024).

Tested on: 186277-243-T-J2-PDC multi-cell spheroid viability
Assay: Anticancer human tumor 186277-243-T-J2-PDC patient-derived colon adenocarcinoma cell line growth inhibition [PI3K]
Conditions: for IC50: curve of first compound; for viability, T/C: stronger effect = lower value
Source text: Combinatorial screen of targeted agents with the PI3K inhibitors inavolisib, alpelisib, duvelisib, and copanlisib in multi-cell type tumor spheroids
A high-throughput screen of multi-cell type tumor spheroids was designed to identify active combinations of targeted small molecules and PI3K pathway inhibitors. Complex spheroids include a stromal component modeled by human endothelial cells (HUVEC) and fibroblasts modeled by human mesenchymal stem cells (MSCs). The concentration ranges selected for each drug and investigational agent were based upon clinically achievable concentrations if the clinical Cmax of the agent was known.
Compounds. The drugs and investigational agents: inavolisib (NSC800729), alpelisib (NSC765974), duvelisib (NSC772469), copanlisib (NSC816437), ipatasertib (NSC767898), afuresertib (NSC778305), talazoparib (NSC767125), sapanisertib (NSC764658), selumetinib (NSC741078), tovorafenib (DAY101, NSC766906), vemurafenib (NSC761431), ravoxertinib (NSC781343), sotorasib (NSC818433), MRTX1133 (NSC 836407), abemaciclib (NSC 768073), palbociclib (NSC758247), venetoclax (NSC 766270), SY5609 (NSC837396), enzalutamide (NSC755605), and darolutamide (NSC825331), were obtained from the National Cancer Institute (NCI) Developmental Therapeutics Program Chemical Repository. The FDA-approved anticancer drug set is available from the NCI Developmental Therapeutics Program. […] The stock solutions were prepared in dimethyl sulfoxide (DMSO, Sigma-Aldrich, St. Louis, MO, cat. D2650) at 800-fold the tested concentration and stored at -70 degrees C prior to their use. All drugs and investigational agents were tested over a range starting from a high concentration at or near the clinical Cmax and decreasing in half-log increments. If the clinical Cmax for an agent had not been determined, the highest concentration tested was 10 microM.
Cell Culture. All cells were maintained in an incubator at 37 degrees C and 5% CO2 with 95% humidity. The PDC lines were cultured according to standard operating procedures established by the NCI PDMR (https://pdmr.cancer.gov/sops/default.htm). All PDCs were thawed and cultured in Matrigel-coated flasks prepared with a working solution of 1X Ham's F-12 nutrient mix, without supplementation (Invitrogen, Waltham, MA, cat. 11765054), 100 U/mL penicillin-streptomycin (Invitrogen, cat. 15140122), and 2.5% Matrigel (Corning Inc., Corning, NY, cat. 354248) for the first three passages. The 354836-022-R-J1-PDC, 475296-252-R-J1-PDC, and 997726-040-R-J2-PDC lines were cultured in 6A media, which includes advanced DMEM/F-12 (Thermo Fisher Scientific, cat. 12634028), 10 mM HEPES (Thermo Fisher Scientific, cat. 15630080), 1X GlutaMAX supplement (Thermo Fisher Scientific, cat. 35050061), 0.1 mg/mL primocin (InvivoGen, San Diego, CA, cat. ant-pm-2), 10% defined fetal bovine serum, heat inactivated (HyClone Laboratories Inc., Logan, UT, cat. SH30070.03HI), 50% L-WRN conditioned media (ATCC, cat. CRL-3276), 1.25 mM N-Acetyl-L-cysteine (Sigma-Aldrich, cat. A9165), 10 mM nicotinamide (Sigma-Aldrich, cat. N0636), 1X B-27 supplement (Thermo Fisher Scientific, cat. 17504044), 1X N-2 supplement (Thermo Fisher Scientific, cat. 17502048), and 10 microM Y-27632 dihydrochloride (Tocris Bioscience, Bristol, United Kingdom, cat. 1254). The 624824-186-R-J2-PDC line was cultured in 6C/Colon 1B media, which includes all 6A media components plus 50 ng/mL human EGF recombinant protein (Thermo Fisher Scientific, cat. PHG0311). […]
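Also: spheroids exposed to compounds for seven days before viability reading.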
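For viability, T/C in this document: 100% = DMSO vehicle control viability.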

With `CCN1CCN(Cc2ccc(Nc3ncc(F)c(-c4cc(F)c5nc(C)n(C(C)C)c5c4)n3)nc2)CC1` + CC(Nc1ccc2c(c1)OCCn1cc(N3C(=O)OCC3C(F)F)nc1-2)C(N)=O the IC50 (second compound 0.00316 µM) was greater than 1000 nM, the IC50 (second compound 0.01 µM) was greater than 1000 nM and the IC50 (second compound 0.0316 µM) was greater than 1000 nM. For the same compound, the IC50 (second compound 0.1 µM) was greater than 1000 nM, the IC50 (second compound 0.316 µM) was 40.3 nM and the IC50 (second compound 1 µM) was less than 3.16 nM. It also gave a viability, T/C (second compound 0.00316 µM, first compound 0.00316 µM) of 99.4%, a viability, T/C (second compound 0.00316 µM, first compound 0.01 µM) of 94.3% and a viability, T/C (second compound 0.00316 µM, first compound 0.0316 µM) of 102%. The viability, T/C (second compound 0.00316 µM, first compound 0.1 µM) was 143%, the viability, T/C (second compound 0.00316 µM, first compound 0.316 µM) was 165% and the viability, T/C (second compound 0.00316 µM, first compound 1 µM) was 128%. The viability, T/C (second compound 0.01 µM, first compound 0.00316 µM) was 124%, the viability, T/C (second compound 0.01 µM, first compound 0.01 µM) was 85% and the viability, T/C (second compound 0.01 µM, first compound 0.0316 µM) was 106%. For the same compound, the viability, T/C (second compound 0.01 µM, first compound 0.1 µM) was 132%, the viability, T/C (second compound 0.01 µM, first compound 0.316 µM) was 142% and the viability, T/C (second compound 0.01 µM, first compound 1 µM) was 133%. It also gave a viability, T/C (second compound 0.0316 µM, first compound 0.00316 µM) of 98.9%, a viability, T/C (second compound 0.0316 µM, first compound 0.01 µM) of 93.3% and a viability, T/C (second compound 0.0316 µM, first compound 0.0316 µM) of 107%. For the same compound, the viability, T/C (second compound 0.0316 µM, first compound 0.1 µM) was 113%, the viability, T/C (second compound 0.0316 µM, first compound 0.316 µM) was 124% and the viability, T/C (second compound 0.0316 µM, first compound 1 µM) was 103%. The viability, T/C (second compound 0.1 µM, first compound 0.00316 µM) was 105%, the viability, T/C (second compound 0.1 µM, first compound 0.01 µM) was 95.1% and the viability, T/C (second compound 0.1 µM, first compound 0.0316 µM) was 83%. It also gave a viability, T/C (second compound 0.1 µM, first compound 0.1 µM) of 81.8%, a viability, T/C (second compound 0.1 µM, first compound 0.316 µM) of 75.9% and a viability, T/C (second compound 0.1 µM, first compound 1 µM) of 62.5%. It also gave a viability, T/C (second compound 0.316 µM, first compound 0.00316 µM) of 67.6%, a viability, T/C (second compound 0.316 µM, first compound 0.01 µM) of 74.8% and a viability, T/C (second compound 0.316 µM, first compound 0.0316 µM) of 52.5%. The viability, T/C (second compound 0.316 µM, first compound 0.1 µM) was 42.8%, the viability, T/C (second compound 0.316 µM, first compound 0.316 µM) was 42.5% and the viability, T/C (second compound 0.316 µM, first compound 1 µM) was 36.2%. For the same compound, the viability, T/C (second compound 1 µM, first compound 0.00316 µM) was 37.3%, the viability, T/C (second compound 1 µM, first compound 0.01 µM) was 37.8% and the viability, T/C (second compound 1 µM, first compound 0.0316 µM) was 28.3%. For the same compound, the viability, T/C (second compound 1 µM, first compound 0.1 µM) was 28%, the viability, T/C (second compound 1 µM, first compound 0.316 µM) was 31% and the viability, T/C (second compound 1 µM, first compound 1 µM) was 24.5%.
